Consider six molecules from patent US20190124918A1, “BIOFILM FORMATION INHIBITOR AND BIOFILM FORMATION INHIBITING COMPOSITION” (KAO CORPORATION, priority 2016, published 2019).

A value given as a limit tells only on which side of the number the result lay.

In assay [1] the test system is Pseudomonas PAO1 strain (ATCC 15692). The experiment in a line: Amount of biofilm formed (crystal violet, OD570), 96-well microplate culture. The class given is cell-based. As to conditions: for inhibition at 101 ppm / inhibition at 203 ppm / inhibition at 405 ppm / inhibition at 608 ppm / inhibition at 709 ppm / inhibition at 810 ppm: Test Example 3; for inhibition at 101 ppm: final concentration 101 ppm; for inhibition at 203 ppm: final concentration 203 ppm; for inhibition at 405 ppm: final concentration 405 ppm; for inhibition at 608 ppm: final concentration 608 ppm; for inhibition at 709 ppm: final concentration 709 ppm; for inhibition at 810 ppm: final concentration 810 ppm; for inhibition at 5 ppm: final concentration 5 ppm; for inhibition at 9 ppm: final concentration 9 ppm; for inhibition at 18 ppm: final concentration 18 ppm; for inhibition at 27 ppm: final concentration 27 ppm; for inhibition at 32 ppm: final concentration 32 ppm; for inhibition at 37 ppm: final concentration 37 ppm. Here is the method:
Pseudomonas PAO1 strain (ATCC 15692) was subjected to stationary culture performed in LB culture medium (Lysogeny Broth; manufactured by Becton Dickinson) at 37° C. for 24 hours. The turbidity (OD600) of the culture solution was measured. The culture solution was diluted with Mueller Hinton Broth (BBL made) to prepare a suspension (15 mL) having a turbidity (OD600) of 1/10^6. […]
(§1) Growth inhibition rates relative to the control (ethanol alone) were calculated based on OD600 values measured and in accordance with the following expression. In addition, biofilm (BF) formation inhibition rates relative to the control (ethanol alone) were calculated based on OD570 values and in accordance with the following expression:
BF inhibition (%)={1−(compound addition group OD570/control group OD570)}×100
(§2) As a control, an ethanol solvent alone was used (EtOH control). The concentrations of test compounds in the ethanol solution were as follows: test compound 1: 20 mM, test compounds 2 to 7: 100 mM. To each of the wells of a 96-well microplate (351172; manufactured by Japan Becton Dickinson), 6 μL of DMSO (Tokyo Kasei) and an ethanol solution of each test compound (1 to 8 μL) were added and then the microplates were allowed to stand still at room temperature for 5 hours to evaporate ethanol. A suspension solution of a Pseudomonas microbe prepared in the same procedure as in Test Example 1, 1) was added in an amount of 145 μL per well and culture was initiated.
(§3) After the 96-well microplate was subjected to stationary culture at 30° C. for 24 hours, turbidity (OD600) was measured to check growth. Subsequently, individual wells were stained with 0.1% crystal violet and thoroughly washed twice with physiological saline. To each well, 200 μL of ethanol was added and the absorbance (OD570) was measured to obtain the amount of the biofilm formed. The growth inhibition rate and biofilm (BF) formation inhibition rate were calculated based on OD600 and OD570 values measured and in accordance with the expressions used in Test Example 2.

For assay [2] the test system is unchanged. The experiment in a line: Growth of test microbe (turbidity OD600), 96-well microplate culture. The class given is cell-based. The settings on record: for inhibition at 101 ppm / inhibition at 203 ppm / inhibition at 405 ppm / inhibition at 608 ppm / inhibition at 709 ppm / inhibition at 810 ppm: Test Example 3; for inhibition at 101 ppm: final concentration 101 ppm; for inhibition at 203 ppm: final concentration 203 ppm; for inhibition at 405 ppm: final concentration 405 ppm; for inhibition at 608 ppm: final concentration 608 ppm; for inhibition at 709 ppm: final concentration 709 ppm; for inhibition at 810 ppm: final concentration 810 ppm; for inhibition at 5 ppm: final concentration 5 ppm; for inhibition at 9 ppm: final concentration 9 ppm; for inhibition at 18 ppm: final concentration 18 ppm; for inhibition at 27 ppm: final concentration 27 ppm; for inhibition at 32 ppm: final concentration 32 ppm; for inhibition at 37 ppm: final concentration 37 ppm. The protocol:
Pseudomonas PAO1 strain (ATCC 15692) was subjected to stationary culture performed in LB culture medium (Lysogeny Broth; manufactured by Becton Dickinson) at 37° C. for 24 hours. The turbidity (OD600) of the culture solution was measured. The culture solution was diluted with Mueller Hinton Broth (BBL made) to prepare a suspension (15 mL) having a turbidity (OD600) of 1/10^6.
To each of the wells of a 96-well microplate (351172; manufactured by Japan Becton Dickinson), 6 μL of DMSO (Tokyo Chemical Industry Co. Ltd) and an ethanol solution (1 μL, 3 μL or 5 μL) of a test compound were added. After that, the microplate was allowed to stand still at room temperature for 5 hours to evaporate ethanol. The suspension of Pseudomonas microbe prepared in the above step 1) was added in an amount of 145 μL per well and culture was initiated. As the test compound, 2-methylhydroquinone (Sigma Aldrich) and p-toluquinone (Tokyo Kasei) were used. As a reference compound, sodium hypochlorite (manufactured by Wako Pure Chemical Industries Ltd.) was used. As a control, an ethanol solvent (EtOH control) alone was used. The concentration of the test compound in the ethanol solution is 1,000 ppm or 10,000 ppm and the final concentration of the test compound in the culture solution was about from 7 to 333 ppm.
After the 96-well microplate was subjected to stationary culture performed at 30° C. for 24 hours, turbidity (OD600) was measured to check growth. Subsequently, individual wells were stained with 0.1% crystal violet and thoroughly washed twice with physiological saline. To each well, 200 μL of ethanol was added and the absorbance (OD570) was measured to obtain the amount of the biofilm formed.
Compounds listed in Table 3 were each added to a test microbe and culture was conducted by the same procedure as in Test Example 1 and the amount of growth (OD600) and the amount of biofilm formed (OD570) were measured. For compounds a, b, c, f, h, i, J and k, 20 mM ethanol solutions were prepared; whereas for compounds d, e, g, 5 mM ethanol solutions were prepared. The solutions were each added to a 96-well microplate in an amount of 1 to 8 μL and evaluation was made. The final concentrations of the individual compounds are described in Table 3.
as §1
Growth inhibition (%)=(1−(compound addition group OD600/control group OD600))×100
as §2, §3

[3] abbreviates: Pseudomonas, read-out: BF inhibition (%).
[4] abbreviates: high concentration range of 200 ppm or more.

The term inhibition denotes the share of the control response that was lost under treatment.

As for `CC(C)c1ccc(O)cc1O` [Compound 7, 4-Isopropylresorcinol], in assay [1] (setting [3]), the inhibition at 101 ppm was less than 0%, the inhibition at 203 ppm was less than 0%, the inhibition at 405 ppm was less than 0% and the inhibition at 608 ppm was 29.1%. Moreover, in assay [1] (setting [3]), the inhibition at 709 ppm was 29.3% and the inhibition at 810 ppm was 21%. For the same molecule, in assay [2] (Pseudomonas), the inhibition at 101 ppm is less than 0%, testing at 203 ppm gave an inhibition of 5.7%, the inhibition at 405 ppm is less than 0% and the inhibition at 608 ppm amounted to 4.8%. In assay [2] (Pseudomonas), the inhibition at 709 ppm was found to be 19.5% and the inhibition at 810 ppm stood at 40.2%.
As for `Cc1c(O)ccc(O)c1C` [e, 2,3-Dimethylhydroquinone], in assay [1] (setting [3]), the inhibition at 5 ppm was less than 0%, the inhibition at 9 ppm is less than 0%, the inhibition at 18 ppm is less than 0% and the inhibition at 27 ppm is 2.4%. Moreover, in assay [1] (setting [3]), the inhibition at 32 ppm turned out to be 17.8% and the inhibition at 37 ppm was 31.1%. Further, in assay [2] (Pseudomonas), the inhibition at 5 ppm was less than 0%, the inhibition at 9 ppm is 13.1%, the inhibition at 18 ppm was determined as 0.8% and the inhibition at 27 ppm was less than 0%. In assay [2] (Pseudomonas), the inhibition at 32 ppm was 14% and the inhibition at 37 ppm came to 5.4%.
Take `Cc1cc(O)ccc1O` [b, 2-Methylhydroquinone]: the inhibition at 16 ppm is 51.4% in assay [1] (Pseudomonas, final concentration 16 ppm, read-out: BF inhibition (%)) and 31.2% in assay [2] (Pseudomonas, final concentration 16 ppm). Moreover, the inhibition at 33 ppm was 42.5% in assay [1] (Pseudomonas, final concentration 33 ppm, read-out: BF inhibition (%)) and less than 0% in assay [2] (Pseudomonas, final concentration 33 ppm). Moreover, the inhibition at 65 ppm in assay [1] (Pseudomonas, final concentration 65 ppm, read-out: BF inhibition (%)) is 76.5%; in assay [2] (Pseudomonas, final concentration 65 ppm), 4%. Further, the inhibition at 98 ppm in assay [1] (Pseudomonas, final concentration 98 ppm, read-out: BF inhibition (%)) was 87.3%; in assay [2] (Pseudomonas, final concentration 98 ppm), less than 0%. For the same molecule, the inhibition at 114 ppm in assay [1] (Pseudomonas, final concentration 114 ppm, read-out: BF inhibition (%)) was 95.2%; in assay [2] (Pseudomonas, final concentration 114 ppm), 1.5%. Also, the inhibition at 130 ppm was 96.2% in assay [1] (Pseudomonas, final concentration 130 ppm, read-out: BF inhibition (%)) and 0% in assay [2] (Pseudomonas, final concentration 130 ppm). In addition, the “The amount of the biofilm formed OD570” value stood at 0.7615 in assay [1] (final concentration 7 ppm, EtOH control 0.9163); 0.7848 in assay [1] (final concentration 20 ppm, EtOH control 0.9564); 0.739 in assay [1] (final concentration 33 ppm, EtOH control 0.8974); 0.5875 in assay [1] (final concentration 67 ppm, EtOH control 0.8853); 0.0566 in assay [1] (final concentration 200 ppm, EtOH control 0.9248); 0.0744 in assay [1] (final concentration 333 ppm, EtOH control 0.9562). In addition, the “biofilm formation (in words)” value in assay [1] (setting [4]) and in assay [1] (low concentration range of less than 200 ppm) was “inhibited” throughout. The “Growth OD600” value is 0.6114 in assay [2] (final concentration 7 ppm, EtOH control 0.5913); 0.6276 in assay [2] (final concentration 20 ppm, EtOH control 0.6346); 0.6291 in assay [2] (final concentration 33 ppm, EtOH control 0.668); 0.471 in assay [2] (final concentration 67 ppm, EtOH control 0.628); 0.3373 in assay [2] (final concentration 200 ppm, EtOH control 0.6045); 0.4302 in assay [2] (final concentration 333 ppm, EtOH control 0.6088). In assay [2] (setting [4]), the “microbial growth (in words)” value is “inhibited”.
Turning to `Cc1cc(O)cc(C)c1O` [d, 2,6-Dimethylhydroquinone], in assay [1] (setting [3]), the inhibition at 5 ppm is 12.7%, the inhibition at 9 ppm was determined as 11.2%, the inhibition at 18 ppm was less than 0% and the inhibition at 27 ppm came to 6.3%. In addition, in assay [1] (setting [3]), the inhibition at 32 ppm stood at 17.8% and the inhibition at 37 ppm turned out to be 31.9%. In assay [2] (Pseudomonas), this molecule returned an inhibition at 5 ppm of less than 0%, an inhibition at 9 ppm of 6.3%, an inhibition at 18 ppm of 0.8% and an inhibition at 27 ppm of 6.6%. In assay [2] (Pseudomonas), this molecule yielded an inhibition at 32 ppm of 14% and an inhibition at 37 ppm of 5.4%.
`CC(C)(C)C1=CC(=O)C=CC1=O` [k, tert-Butylbenzoquinone]: the inhibition at 22 ppm in assay [1] (Pseudomonas, final concentration 22 ppm, read-out: BF inhibition (%)) was less than 0%; in assay [2] (Pseudomonas, final concentration 22 ppm) it was 8.9%. The inhibition at 44 ppm was less than 0% in assay [1] (Pseudomonas, final concentration 44 ppm, read-out: BF inhibition (%)) and less than 0% in assay [2] (Pseudomonas, final concentration 44 ppm). Further, the inhibition at 88 ppm in assay [1] (Pseudomonas, final concentration 88 ppm, read-out: BF inhibition (%)) is less than 0%; in assay [2] (Pseudomonas, final concentration 88 ppm) it was less than 0%. In addition, the inhibition at 131 ppm in assay [1] (Pseudomonas, final concentration 131 ppm, read-out: BF inhibition (%)) is less than 0%; in assay [2] (Pseudomonas, final concentration 131 ppm), less than 0%. Moreover, the inhibition at 154 ppm in assay [1] (Pseudomonas, final concentration 154 ppm, read-out: BF inhibition (%)) was 26.2%; in assay [2] (Pseudomonas, final concentration 154 ppm), less than 0%. Besides, the inhibition at 175 ppm in assay [1] (Pseudomonas, final concentration 175 ppm, read-out: BF inhibition (%)) is 30.3%; in assay [2] (Pseudomonas, final concentration 175 ppm) it was less than 0%.
With `CCCc1c(O)cccc1O` [Compound 4, 2-Propylresorcinol], in assay [1] (setting [3]), the inhibition at 101 ppm is less than 0%, the inhibition at 203 ppm is less than 0%, the inhibition at 405 ppm is less than 0% and the inhibition at 608 ppm amounted to 7.9%. In assay [1] (setting [3]), the inhibition at 709 ppm was found to be 21.7% and the inhibition at 810 ppm came out at 14.1%. Further, in assay [2] (Pseudomonas), the inhibition at 101 ppm is less than 0%, the inhibition at 203 ppm came out at 20.5%, the inhibition at 405 ppm was less than 0% and the inhibition at 608 ppm worked out at 6.8%. Further, in assay [2] (Pseudomonas), 709 ppm produced 16.4% inhibition and the inhibition at 810 ppm is less than 0%.
